Measured values as given in ChEMBL document CHEMBL5303573, “Mapping human microbiome drug metabolism by gut bacteria and their genes” (Nature, 2019).

Assays:
[1] = The drug is tested on Bifidobacterium longum subsp. Infantis strain: CCUG52486 for biotransformation. The drug concentrations were measured before and after a 12-h incubation by liquid-chromatography-coupled mass spectrometry (LC–MS); settings: 2 µM
[2] = The drug is tested on Collinsella aerofaciens strain: ATCC25986 for biotransformation. The drug concentrations were measured before and after a 12-h incubation by liquid-chromatography-coupled mass spectrometry (LC–MS); settings: 2 µM
[3] = The drug is tested on Bacteroides caccae strain: ATCC43185 for biotransformation. The drug concentrations were measured before and after a 12-h incubation by liquid-chromatography-coupled mass spectrometry (LC–MS); settings: 2 µM
[4] = The drug is tested on Bacteroides cellulosilyticus strain: DSM14838 for biotransformation. The drug concentrations were measured before and after a 12-h incubation by liquid-chromatography-coupled mass spectrometry (LC–MS); settings: 2 µM
[5] = The drug is tested on Anaerococcus hydrogenalis strain: DSM7454 for biotransformation. The drug concentrations were measured before and after a 12-h incubation by liquid-chromatography-coupled mass spectrometry (LC–MS); settings: 2 µM
[6] = The drug is tested on Clostridium sp. strain: fecal isolate for biotransformation. The drug concentrations were measured before and after a 12-h incubation by liquid-chromatography-coupled mass spectrometry (LC–MS); settings: 2 µM
[7] = The drug is tested on Clostridium symbiosum strain: ATCC14940 for biotransformation. The drug concentrations were measured before and after a 12-h incubation by liquid-chromatography-coupled mass spectrometry (LC–MS); settings: 2 µM
[8] = The drug is tested on Dorea formicigenerans strain: ATCC27755 for biotransformation. The drug concentrations were measured before and after a 12-h incubation by liquid-chromatography-coupled mass spectrometry (LC–MS); settings: 2 µM
[9] = The drug is tested on Ruminococcus gnavus strain: ATCC29149 for biotransformation. The drug concentrations were measured before and after a 12-h incubation by liquid-chromatography-coupled mass spectrometry (LC–MS); settings: mediterraneibacter gnavus, 2 µM
[10] = The drug is tested on Ruminococcus lactaris strain: ATCC29176 for biotransformation. The drug concentrations were measured before and after a 12-h incubation by liquid-chromatography-coupled mass spectrometry (LC–MS); settings: 2 µM
[11] = The drug is tested on Subdoligranulum variabile strain: DSM15176 for biotransformation. The drug concentrations were measured before and after a 12-h incubation by liquid-chromatography-coupled mass spectrometry (LC–MS); settings: 2 µM
[12] = The drug is tested on Edwardsiella tarda strain: ATCC23685 for biotransformation. The drug concentrations were measured before and after a 12-h incubation by liquid-chromatography-coupled mass spectrometry (LC–MS); settings: 2 µM
[13] = bifidobacterium adolescentis, 12 h, 2 µM
[14] = bacteroides fragilis, 12 h, 2 µM
[15] = bacteroides fragilis, 12 h, 2 µM; remark: listed apart in the source
Description: The drug is tested on Bacteroides fragilis strain: 3397 (T10) for biotransformation. The drug concentrations were measured before and after a 12-h incubation by liquid-chromatography-coupled mass spectrometry (LC–MS)

[16] = bacteroides fragilis, 12 h, 2 µM; remark: listed apart in the source
[17] = parabacteroides distasonis, 12 h, 2 µM
[18] = anaerostipes sp., 12 h, 2 µM
[19] = The drug is tested on Eubacterium ventriosum strain: ATCC27560 for biotransformation. The drug concentrations were measured before and after a 12-h incubation by liquid-chromatography-coupled mass spectrometry (LC–MS); assay type: ADME; parameters: dose 2 uM, timepoint 0 vs 12 hours; settings: 2 µM

SMILES	Bacterial Biotransformation [1]	Bacterial Biotransformation [2]	Bacterial Biotransformation [3]	Bacterial Biotransformation [4]	Bacterial Biotransformation [5]	Bacterial Biotransformation [6]	Bacterial Biotransformation [7]	Bacterial Biotransformation [8]	Bacterial Biotransformation [9]	Bacterial Biotransformation [10]	Bacterial Biotransformation [11]	Bacterial Biotransformation [12]	Bacterial Biotransformation [13]	Bacterial Biotransformation [14]	Bacterial Biotransformation [15]	Bacterial Biotransformation [16]	Bacterial Biotransformation [17]	Bacterial Biotransformation [18]	Bacterial Biotransformation [19]
Nc1nc2ccc(OC(F)(F)F)cc2s1 [RILUZOLE]	Compound NOT metabolized	Compound NOT metabolized	Compound NOT metabolized	Compound NOT metabolized	Compound NOT metabolized	Compound metabolized	Compound NOT metabolized	Compound NOT metabolized	Compound NOT metabolized	Compound NOT metabolized	Compound NOT metabolized	Compound NOT metabolized	Compound NOT metabolized	Compound NOT metabolized	Compound NOT metabolized	Compound metabolized	Compound metabolized	Compound NOT metabolized	
COc1cc2nc(N3CCN(C(=O)C4CCCO4)CC3)nc(N)c2cc1OC (stereo not drawn) [TERAZOSIN]	Compound NOT metabolized	Compound NOT metabolized	Compound NOT metabolized	Compound NOT metabolized	Compound NOT metabolized	Compound NOT metabolized	Compound NOT metabolized	Compound NOT metabolized	Compound NOT metabolized		Compound NOT metabolized	Compound NOT metabolized	Compound NOT metabolized	Compound NOT metabolized	Compound NOT metabolized	Compound NOT metabolized	Compound NOT metabolized	Compound NOT metabolized	Compound NOT metabolized
COc1ccccc1OCC(O)CN1CCN(CC(=O)Nc2c(C)cccc2C)CC1 (stereo not drawn) [RANOLAZINE]	Compound NOT metabolized	Compound NOT metabolized	Compound NOT metabolized	Compound NOT metabolized	Compound NOT metabolized	Compound NOT metabolized	Compound NOT metabolized	Compound NOT metabolized	Compound NOT metabolized	Compound NOT metabolized	Compound NOT metabolized	Compound NOT metabolized	Compound NOT metabolized	Compound NOT metabolized	Compound NOT metabolized	Compound NOT metabolized	Compound NOT metabolized	Compound NOT metabolized	Compound NOT metabolized
CC(C)(C)NC[C@H](O)COc1nsnc1N1CCOCC1.O=C(O)/C=C\C(=O)O [TIMOLOL MALEATE]	Compound NOT metabolized	Compound NOT metabolized	Compound NOT metabolized	Compound NOT metabolized	Compound NOT metabolized	Compound NOT metabolized	Compound NOT metabolized	Compound NOT metabolized	Compound NOT metabolized	Compound NOT metabolized	Compound NOT metabolized	Compound NOT metabolized	Compound NOT metabolized	Compound NOT metabolized	Compound NOT metabolized	Compound NOT metabolized	Compound NOT metabolized	Compound NOT metabolized	Compound NOT metabolized
COc1ccc(CCN(C)CCCC(C#N)(c2ccc(OC)c(OC)c2)C(C)C)cc1OC (stereo not drawn)	Compound NOT metabolized	Compound NOT metabolized	Compound NOT metabolized	Compound NOT metabolized	Compound NOT metabolized			Compound NOT metabolized	Compound NOT metabolized	Compound NOT metabolized	Compound NOT metabolized	Compound NOT metabolized	Compound NOT metabolized	Compound NOT metabolized		Compound NOT metabolized	Compound metabolized	Compound NOT metabolized	
N#Cc1ccc2[nH]cc(CCCCN3CCN(c4ccc5oc(C(N)=O)cc5c4)CC3)c2c1 [VILAZODONE]	Compound metabolized	Compound NOT metabolized	Compound metabolized	Compound metabolized	Compound NOT metabolized	Compound NOT metabolized	Compound NOT metabolized	Compound NOT metabolized	Compound NOT metabolized	Compound NOT metabolized	Compound NOT metabolized	Compound NOT metabolized	Compound NOT metabolized	Compound metabolized	Compound metabolized	Compound metabolized	Compound metabolized	Compound NOT metabolized	Compound NOT metabolized
CC(C)OC(=O)C(C)(C)Oc1ccc(C(=O)c2ccc(Cl)cc2)cc1 [FENOFIBRATE]	Compound NOT metabolized	Compound NOT metabolized	Compound NOT metabolized	Compound NOT metabolized	Compound NOT metabolized		Compound NOT metabolized				Compound NOT metabolized	Compound NOT metabolized	Compound NOT metabolized	Compound metabolized	Compound NOT metabolized	Compound NOT metabolized	Compound NOT metabolized	Compound metabolized	
COc1cc(C(=O)NCc2ccc(OCCN(C)C)cc2)cc(OC)c1OC [TRIMETHOBENZAMIDE]	Compound NOT metabolized	Compound NOT metabolized	Compound NOT metabolized	Compound NOT metabolized	Compound NOT metabolized	Compound NOT metabolized	Compound NOT metabolized	Compound NOT metabolized	Compound NOT metabolized	Compound NOT metabolized	Compound NOT metabolized	Compound NOT metabolized	Compound NOT metabolized	Compound NOT metabolized	Compound NOT metabolized	Compound NOT metabolized	Compound NOT metabolized	Compound NOT metabolized	Compound NOT metabolized
C#C[C@]1(OC(C)=O)CC[C@H]2[C@@H]3CCC4=C[C@@H](OC(C)=O)CC[C@@H]4[C@H]3CC[C@@]21C [ETHYNODIOL DIACETATE]	Compound NOT metabolized	Compound NOT metabolized	Compound NOT metabolized	Compound NOT metabolized	Compound NOT metabolized	Compound NOT metabolized		Compound NOT metabolized		Compound NOT metabolized	Compound NOT metabolized	Compound NOT metabolized	Compound NOT metabolized	Compound NOT metabolized	Compound NOT metabolized	Compound NOT metabolized	Compound NOT metabolized	Compound NOT metabolized	Compound NOT metabolized
